Reference: patent US8129398B2 (priority 2008, dated 2012)

Each molecule was assayed against T1, HIV-integrase (Human immunodeficiency virus type 1 group M subtype B, UniProt P12497) (assay: HIV-Integrase Inhibition Activity (SPA bead integration assay with P33 labeled target DNA)). Conditions: recombinant integrase, class symbols; read-out: in vitro activity.
T1 construct: Recombinant integrase (0.26 ng) was incubated with the beads
Type: biochemical
Outline: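 Strand integration read as bead-proximity CPM after P33 target DNA (0.1 fmol) and inhibitor were added to washed integrase–substrate DNA complexes on SPA beads. Enzyme bound 90 min at 37° C; EDTA (10 mM final) terminated reaction; IC50 graded A/B/C.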
Molecule CN(C)C(=O)C(=O)NC12CCC(CC1)Cn1c2nc(C(=O)NCCc2cccc(Cl)c2)c(O)c1=O [Example 353] has an IC50 of under 10 nM. Work on CO[C@H]1C[C@@H](C(=O)NC23CCC(CC2)Cn2c3nc(C(=O)NCc3ccc(F)c(C)c3)c(O)c2=O)N(C(=O)c2ccno2)C1 [Example 280, 7,10-Ethanopyrimido[1,2-a]azepine-2-carboxamide, N-[(4-fluoro-3-methylphenyl)methyl]-4,6,7,8,9,10-hexahydro-3-hydroxy-10-[[[(2S,4S)-1-(5-isoxazolylcarbonyl)-4-methoxy-2-pyrrolidinyl]carbonyl]amino]-4-oxo-] yielded an IC50 of under 10 nM. Cc1cc(CNC(=O)c2nc3n(c(=O)c2O)CC2CCC3(NC(=O)N(C)c3ccccn3)CC2)ccc1F [Example 329, 7,10-Ethanopyrimido[1,2-a]azepine-2-carboxamide, N-[(4-fluoro-3-methylphenyl)methyl]-4,6,7,8,9,10-hexahydro-3-hydroxy-10-[[(methyl-2-pyridinylamino)carbonyl]amino]-4-oxo-] gave an IC50 of under 10 nM. With O=C(NC12CCC(CC1)Cn1c2nc(C(=O)NCc2ccc(F)cc2)c(O)c1=O)C(=O)N1CCN(C(=O)c2ccco2)CC1 [Example 143, N-(4-Fluorobenzyl)-10-(((4-(2-furanylcarbonyl)-1-piperazinyl)(oxo)acetyl)amino)-3-hydroxy-4-oxo-4,6,7,8,9,10-hexahydro-7,10-ethanopyrimido[1,2-a]azepine-2-carboxamide] the IC50 was under 10 nM. With CN(C)C(=O)C(=O)NC12CCC(CC1)Cn1c2nc(C(=O)NCc2ccc(F)cc2-c2nncn2C)c(O)c1=O [Example 109, N′-(2-((4-Fluoro-2-(4-methyl-4H-1,2,4-triazol-3-yl)benzyl)carbamoyl)-3-hydroxy-4-oxo-6,7,8,9-tetrahydro-7,10-ethanopyrimido[1,2-a]azepin-10(4H)-yl)-N,N-dimethylethanediamide] the IC50 was 10 to 100 nM. For Cn1ccnc1C(=O)NC12CCC(CC1)Cn1c2nc(C(=O)NCc2ccc(F)cc2)c(O)c1=O [Example 49, N-(4-Fluorobenzyl)-3-hydroxy-10-(((1-methyl-1H-imidazol-2-yl)carbonyl)amino)-4-oxo-4,6,7,8,9,10-hexahydro-7,11-ethanopyrimido[1,2-a]azepine-2-carboxamide], the IC50 was under 10 nM. CO[C@@H]1C[C@@H](C(=O)NC23CCC(CC2)Cn2c3nc(C(=O)NCc3ccc(F)cc3)c(O)c2=O)N(C(C)=O)C1 [Example 273, 7,10-Ethanopyrimido[1,2-a]azepine-2-carboxamide, 10-[[[(2S,4R)-1-acetyl-4-methoxy-2-pyrrolidinyl]carbonyl]amino]-N-[(4-fluorophenyl)methyl]-4,6,7,8,9,10-hexahydro-3-hydroxy-4-oxo-] was tested, and the IC50 was under 10 nM. With Cc1cc(CNC(=O)c2nc3n(c(=O)c2O)CC2CCC3(NC(=O)c3ccncc3)CC2)ccc1F [Example 309, 7,10-Ethanopyrimido[1,2-a]azepine-2-carboxamide, N-[(4-fluoro-3-methylphenyl)methyl]-4,6,7,8,9,10-hexahydro-3-hydroxy-4-oxo-10-[(4-pyridinylcarbonyl)amino]-] the IC50 was under 10 nM. Molecule COC[C@@H]1CCCN1C(=O)C(=O)NC12CCC(CC1)Cn1c2nc(C(=O)NCc2ccc(F)cc2)c(O)c1=O [Example 89, N-(4-Fluorobenzyl)-3-hydroxy-10-((((2S)-2-(methoxymethyl)-1-pyrrolidinyl)(oxo)acetyl)amino)-4-oxo-4,6,7,8,9,10-hexahydro-7,10-ethanopyrimido[1,2-a]azepine-2-carboxamide] has an IC50 of under 10 nM. Molecule CN(C)C(=O)C(=O)NC12CCC(CC1)Cn1c2nc(C(=O)NCc2ccc3c(c2)OCO3)c(O)c1=O [Example 362] has an IC50 of under 10 nM. Molecule O=C(NC12CCC(CC1)Cn1c2nc(C(=O)NCc2ccc(F)cc2)c(O)c1=O)C(=O)N1CCC(F)(F)C1 [Example 70, 10-(((3,3-Difluoro-1-pyrrolidinyl)(oxo)acetyl)amino)-N-(4-fluorobenzyl)-3-hydroxy-4-oxo-4,6,7,8,9,10-hexahydro-7,10-ethanopyrimido[1,2-a]azepine-2-carboxamide] has an IC50 of under 10 nM.
